Measured values published in publication PMC5399635 (The Journal of Pharmacology and Experimental Therapeutics, 2017).
Counter-ions that a name gives are not always drawn. Like-named read-outs stand apart in the source and are kept apart here.

Assays:
[1] = rat, in vivo, 30 s, 20 μM, pH 7.4
rat κ-opioid receptor = biological target: T1, rat κ-opioid receptor (Rattus norvegicus, UniProt P34975); test: Radioligand binding, κ-opioid receptor ([3H]U69593); conditions: cloned rat κ-opioid receptors; read-out: geometric mean Ki
T1 construct: expressed in transfected cells; host or cells: CHO cells
Experimental: Competitive inhibition studies were performed on cloned opioid receptors expressed in membranes of Chinese hamster ovary (CHO) cells and conducted in triplicate (n = 3 independent experiments).
Radioligand binding assays were performed to evaluate the ability of these agents to inhibit specific radioligand binding to cloned opioid receptor subtypes. Half-maximal inhibitory concentration (IC50), equilibrium dissociation constant for the inhibitor (Ki), and negative log of the equilibrium dissociation constant for the inhibitor (pKi) values were obtained. The receptor binding methods used for µ ([Zhang et al., 1998])-, δ ([Simonin et al., 1994])-, and κ ([Meng et al., 1993])-opioid receptors have been described previously, with the exception that 100 mM NaCl was added to the incubation buffer in the µ-opioid receptor binding assay. All assays were conducted in 200-µl volume. All assay incubations were terminated by filtration, and bound radioligand was quantitated by liquid scintillation spectrometry. The IC50 values were determined by nonlinear regression analysis of the competition curves generated with the mean of duplicate values using Hill equation curve fitting. The inhibition constants (Ki) were calculated using the Cheng-Prusoff equation. The pKi results from three independent experiments were analyzed for significant differences by one-way analysis of variance (ANOVA) followed by Bonferroni multiple comparison test.

human µ-opioid receptor [2] = biological target: T2, human µ-opioid receptor (Homo sapiens, UniProt P35372); test: Radioligand binding, µ-opioid receptor ([3H]diprenorphine); set-up: expressed in transfected cells; b18 says CHO cells; conditions: read-out: geometric mean Ki
human µ-opioid receptor [3] = biological target: T2, human µ-opioid receptor; test: [35S]GTPγS binding, Schild-type antagonism of morphine (CHO-K1 membranes)
in vitro = conditions: human
[4] = In situ rat brain perfusion model; conditions: 30 s perfusion, test compound 20 μM, atenolol 50 μM, antipyrine 5 μM, mean ± S.D.
[5] = tested on: morphine-induced antinociception; test: Hot plate model of nociception, antagonism of morphine
[6] = tested on: morphine-induced inhibition of gastrointestinal transit; test: Gastrointestinal transit model (charcoal meal), antagonism of morphine

T2 sequence (P35372 whole entry): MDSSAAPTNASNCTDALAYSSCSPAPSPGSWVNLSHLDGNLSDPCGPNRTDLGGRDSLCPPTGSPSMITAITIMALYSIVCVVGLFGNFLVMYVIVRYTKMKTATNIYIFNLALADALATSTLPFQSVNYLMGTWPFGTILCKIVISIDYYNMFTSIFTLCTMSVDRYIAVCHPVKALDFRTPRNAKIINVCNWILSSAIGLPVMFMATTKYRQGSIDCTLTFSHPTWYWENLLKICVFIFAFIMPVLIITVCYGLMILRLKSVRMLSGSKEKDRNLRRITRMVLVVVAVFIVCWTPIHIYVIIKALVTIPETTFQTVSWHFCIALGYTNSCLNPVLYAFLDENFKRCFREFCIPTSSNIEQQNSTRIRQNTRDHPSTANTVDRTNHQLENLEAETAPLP
T1 sequence (P34975 whole entry): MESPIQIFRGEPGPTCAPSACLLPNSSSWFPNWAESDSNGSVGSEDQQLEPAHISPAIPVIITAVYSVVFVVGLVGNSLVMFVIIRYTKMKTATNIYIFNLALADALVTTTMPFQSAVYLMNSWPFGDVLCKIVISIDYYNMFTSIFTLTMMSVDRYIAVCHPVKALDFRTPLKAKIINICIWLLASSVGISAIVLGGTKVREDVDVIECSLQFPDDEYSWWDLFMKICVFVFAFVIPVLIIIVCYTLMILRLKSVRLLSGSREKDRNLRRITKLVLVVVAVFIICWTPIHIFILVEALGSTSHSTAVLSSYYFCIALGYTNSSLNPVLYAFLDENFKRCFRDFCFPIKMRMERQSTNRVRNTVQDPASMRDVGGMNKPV

Cc1cc(=O)n(-c2ccccc2)n1C [Antipyrine, antipyrine]
Brain Uptake [1]: 28.2 ± 14.3 pmol/g brain/s

C[N@+]1(CC2CC2)CC[C@]23c4c5ccc(O)c4O[C@H]2C(=O)CC[C@@]3(O)[C@H]1C5 [Methylnaltrexone, Methylnaltrexone bromide]
Ki (rat κ-opioid receptor): 10.9 nM
Ki (human µ-opioid receptor [2]): 22.1 nM
Kb (human µ-opioid receptor [3]): 37 nM
pA2 (human µ-opioid receptor [3]; versus morphine, 3 independent experiments): 7.43 ± 0.02
Schild slope (human µ-opioid receptor [3]; versus morphine, pooled 3 experiments): –0.982

C=CCN1CC[C@]23c4c5ccc(O)c4O[C@H]2C(=O)CC[C@@]3(O)[C@H]1C5 [Naloxone, naloxone hydrochloride, reference compound]
Papp A→B at 2 h, 10 μM (in vitro; Caco-2, pH 7.4, Papp A→B, no P-gp inhibitor, mean of 3 experiments): 27.3 ×10⁻⁶ cm/s
Papp B→A at 2 h, 10 μM (in vitro; Caco-2, pH 7.4, Papp B→A, no P-gp inhibitor, mean of 3 experiments): 25 ×10⁻⁶ cm/s
Papp A→B at 2 h, 10 μM (in vitro; Caco-2, pH 7.4, with cyclosporin A, Papp A→B, Cyclosporin A): 28.4 ×10⁻⁶ cm/s
Papp B→A at 2 h, 10 μM (in vitro; Caco-2, pH 7.4, with cyclosporin A, Papp B→A, Cyclosporin A): 23.7 ×10⁻⁶ cm/s
Papp A→B at 2 h, 10 μM (in vitro; Caco-2, pH 7.4, with elacridar, 0.5 μM, Papp A→B, Elacridar): 24.8 ×10⁻⁶ cm/s
Papp B→A at 2 h, 10 μM (in vitro; Caco-2, pH 7.4, with elacridar, 0.5 μM, Papp B→A, Elacridar): 27.3 ×10⁻⁶ cm/s
Papp A→B at 2 h, 10 μM (in vitro; Caco-2, pH 7.4, with verapamil, 100 μM, Papp A→B, Verapamil): 24.5 ×10⁻⁶ cm/s
Papp B→A at 2 h, 10 μM (in vitro; Caco-2, pH 7.4, with verapamil, 100 μM, Papp B→A, Verapamil): 24.9 ×10⁻⁶ cm/s
Brain Uptake [4]: 60.2 ± 13.7 pmol/g brain/s
ED50 ([5]; Rattus norvegicus, po, read-out: ED50, antagonism of morphine analgesia): 1.14 mg/kg
oral dose that completely reversed the analgesic effect of morphine ([5]; hot plate assay, rat): ≥ 10 mg/kg
oral dose that completely reversed the effect of morphine ([6]; GI transit assay, rat): ≥ 10 mg/kg
ED50 ([6]; Rattus norvegicus, read-out: ED50, antagonism of morphine in GI transit): 0.69 mg/kg
